Measurements from patent publication US7776833B2, “Use of cyclic bioisosters of purine system derivatives for treating diseases produced by disorders of niterergic and dopaminergic systems” (priority 2003, dated 2010).

Columns and labels:
Assay type in all cases: in vivo, Wistar rats
[1] = tested on: physical dependence from morphine (morphine abstinence); experiment: Morphine abstinence syndrome, signs scored in the open field test; settings: Morphine − (morphine + compound); compound 3 x 20 mg/kg intramuscularly; one value for the three compounds
Description: Thirty six hours after the last injection selected motor and autonomice parameters which are specific symptoms of abstinence were monitored in the <<open field>> test (an arena with a diameter of 120 cm and wall height of 40 cm).
Med., 2002, V.29, p.1-6.). The observable signs were recorded quantitatively (if it was possible) with further assignment of an index to each sign (depending on the specific feature of the sign) and calculation of the sum of scores. The expression of the abstinence syndrome was presented as a sum of scores. The results were processed using nonparametric statistical analysis based on the Mann-Whitney test.

[2] = tested on: nitrites and nitrates (NOx-); experiment: Measurement of nitrates/nitrites (NOx-) in brain regions after the morphine abstinence experiment; settings: 3 x 20 mg/kg intramuscularly
Description: (§1) After the above experiments the rat brains were isolated and immediately placed in the ice cold 0.9% solution of sodium chloride. After cooling the following structures were isolated from the brain: cerebral cortex, hippocampus, mesencephalon, striatum, brainstem, hypothalamus and cerebellum. The isolated tissue was homogenized in a Potter S homogenizer for 3 minutes at 1500 rpm in 4-5 volumes of 20 mM HEPES (pH 7.5) at 4° C. The supernatants were centrifuged for 30 minutes at 11000 g at 4° C., and aliquots of the obtained supernatants were taken for determining nitrates and nitrites (NOx-), while the remaining part was mixed with cooled 20 mM of HEPES (pH 7.5), containing 0.5 mM ethylenediamine tetraacetate (EDTA), 1 mM dithiotreitol (DDT), 1 mM phenylmethylsulfonyl fluoride (PMSF), aprotinine and leupeptine at a concentration of 5 μg/ml, this mixture being used for determining nitric oxide synthase (NOS) activity.
To estimate the intensity of metabolism of nitric oxide in rats, quantitative determination of stable metabolites of nitrogen oxide-nitrites and nitrates (NOx-) was performed using a fluorometric method by fluorescence of naphthotriazole, a product of reaction of 2,3- diaminonaphthalene (DAN) and nitrite in an acidic medium (Misko T. R., Schilling R. J., Salvemini D. et al. A fluorometric assay for the measurement of nitrite in biological samples. Anal. Biochem., 1993, V. 214, p.11-16) with modifications (Lei B., Adachi N., Nagaro T., Arai T. Measurement of total nitric oxide metabolite (NO (x) (-)) levels in vivo. Brain. Res. Protoc., 1999, V. 4, p. 415-419).
The supernatants of brain deproteinized at 100° C. were placed in a nitrite recovery system containing 0.125 unit/ml of nitrate reductase, 25 μM NADPH and 25 μM FAD prepared in 20 mM Tris-HCl buffer pH 7.6 and incubated for 30 minutes at 37° C. For oxidation of NADPH a lactate dehydrogenase (LDH)/pyruvate system was used. Then 316.0 μM DAN solution in 0.62 M HCl was added and the mixture was incubated for 10 minutes in dark. For stabilization of fluorescence of the formed naphthotriazole, 280 mM NaOH was added. The fluorescence intensity was measured using spectrofluorometer Hitachi F-3000 at a wavelength of excitation 365 nm and emission 405 nm. To calculate the concentration of NOx- in the brain a standard solution of sodium nitrate was used. The concentration of NOx- was expressed in nmol/mg of protein.
(§2) The content of protein in the samples was determined by the Bradford method (Bradford M. M. A rapid and sensitive method for quantitation of microgram quantities of protein using the principle of protein binding . Anal. Biochem., 1976, V. 72, p. 248-254) using Coumassi dye. The statistical analysis was performed using methods appropriate for respective experiments. The data are expressed as mean±standard error of mean.

[3] = tested on: nitric oxide synthase (NOS); experiment: Nitric oxide synthase activity in brain regions, radiometric [3H]L-citrulline method; settings: 3 x 20 mg/kg intramuscularly
Description: as §1
The activity of nitric oxide synthase (NOS) was determined using a radiometric method by the rate of L-citrulline accumulation in a reaction of [^3H] L-arginine oxidation catalyzed by NOS (Bredt M., Snyder S. Nitric oxide mediates glutamate-linked enhancement of cGMP levels in the cerebellum. Proc. Natl. Acad. Sci., USA, 1989, V.86, p.9030-9033). The formation of L-citrulline in this reaction is equivalent to a biosynthesis of nitric oxide.
The reaction was initiated by adding brain supernatant in the reaction medium containing 2 μCi/ml of [3H] L-arginine, 20 mM HEPES (pH 7.4), 0.2 mM CaCl2, 5 μM FAD, 5 μM FMN, 1 mM NADPH, 50 μM of BH4. After 15-60 minutes of incubation at 37° C. a suspension of Dowex 50WX8-400 (Na^+-form), which sorbs unreacted [^3H]L-arginine, but not [^3H] L-citrulline was added to the samples. After the sorption the radioactivity of the samples was determined on a scintillation counter SL-4000 (“Intertechnique”). The activity of Ca^2+-dependent and Ca^2+-independent NOS isoforms was determined by the difference of rates of [^3H]L-citrulline formation in three parallel samples containing 2 mM EDTA (Ca^2+ chelator), 2 mM EDTA+2 mM L-NAME (inhibitor all NOS isoforms) or without inhibitors. The enzyme activity was expressed in rnol [^3H]L-citrulline acumulated per 1 minute on 1 mg of supernatant protein.
as §2

[4] = Groups Nos. 3-14, compound without morphine, one value for all 12 compounds
[5] = Morphine + compound, one value for the three compounds

Compound	Authentic differences (ξ-square criterion) in appearance of signs of abstinence: <<Wet dog>> shakes [1]	Authentic differences (ξ-square criterion) in appearance of signs of abstinence: Aggression [1]	Authentic differences (ξ-square criterion) in appearance of signs of abstinence: Convulsions [1]	Authentic differences (ξ-square criterion) in appearance of signs of abstinence: Diarrhea [1]	Authentic differences (ξ-square criterion) in appearance of signs of abstinence: Dyspnea [1]	Authentic differences (ξ-square criterion) in appearance of signs of abstinence: Forelimb jogging [1]	Authentic differences (ξ-square criterion) in appearance of signs of abstinence: Grit with teeth [1]	Authentic differences (ξ-square criterion) in appearance of signs of abstinence: Mastication [1]	Authentic differences (ξ-square criterion) in appearance of signs of abstinence: Piloerection [1]	Authentic differences (ξ-square criterion) in appearance of signs of abstinence: Ptosis [1]	Authentic differences (ξ-square criterion) in appearance of signs of abstinence: Rhinorrhea [1]	Authentic differences (ξ-square criterion) in appearance of signs of abstinence: Squeak when touched [1]	Nitrites, brainstem [2, 4]	Nitrites, cerebellum [2, 4]	Nitrites, cerebral cortex [2, 4]	Nitrites, hippocampus [2, 4]	Nitrites, hypothalamus [2, 4]	Nitrites, midbrain [2, 4]	Nitrites, striatum [2, 4]	Nitrites, brainstem [2, 5]	also measured
O=c1[nH]n([C@@H]2O[C@H](CO)[C@@H](O)[C@H]2O)c(=O)c2nccc(O)c12.[Na] [Compound 4, isodium salt of 4-hydroxy-7-(β-D-ribofuranosile)pyrido[2,3-d]-6H-pyridazine-5,8-dione]	1.0000	0.8327	0.7821	0.0046	0.0722	0.7821	0.7144	0.1888	0.1847	0.0201	0.3017	0.1888	6.31 ± 0.58 nmol/mg of protein	6.66 ± 0.63 nmol/mg of protein	4.31 ± 0.37 nmol/mg of protein	6.47 ± 0.72 nmol/mg of protein	6.77 ± 0.83 nmol/mg of protein	6.65 ± 0.70 nmol/mg of protein	6.11 ± 0.29 nmol/mg of protein	6.57 ± 0.72 nmol/mg of protein	Nitrites, cerebellum [2, 5]: 5.46 ± 0.44 nmol/mg of protein; Nitrites, cerebral cortex [2, 5]: 4.72 ± 0.37 nmol/mg of protein; Nitrites, hippocampus [2, 5]: 5.44 ± 0.43 nmol/mg of protein; Nitrites, hypothalamus [2, 5]: 6.57 ± 0.88 nmol/mg of protein; Nitrites, midbrain [2, 5]: 5.50 ± 0.48 nmol/mg of protein; Nitrites, striatum [2, 5]: 3.57 ± 0.42 nmol/mg of protein; Activity of NOS, hippocampus [3, 4]: 3.09 ± 0.16 nmol/min/mg of protein; Activity of NOS, hypothalamus [3, 4]: 5.45 ± 0.24 nmol/min/mg of protein; Activity of NOS, midbrain [3, 4]: 2.60 ± 0.29 nmol/min/mg of protein; Activity of NOS, striatum [3, 4]: 1.26 ± 0.08 nmol/min/mg of protein; Activity of NOS, hippocampus [3, 5]: 2.70 ± 0.14 nmol/min/mg of protein; Activity of NOS, hypothalamus [3, 5]: 5.26 ± 0.28 nmol/min/mg of protein; Activity of NOS, midbrain [3, 5]: 1.83 ± 0.23 nmol/min/mg of protein; Activity of NOS, striatum [3, 5]: 1.24 ± 0.08 nmol/min/mg of protein
O=c1[nH][nH]c(=O)c2ncccc12.[Li] [Compound 6, lithium salt of pyrido [2,3-d]-6H-pyridazine-5,8-dione]	1.0000	0.8327	0.7821	0.0046	0.0722	0.7821	0.7144	0.1888	0.1847	0.0201	0.3017	0.1888	6.31 ± 0.58 nmol/mg of protein	6.66 ± 0.63 nmol/mg of protein	4.31 ± 0.37 nmol/mg of protein	6.47 ± 0.72 nmol/mg of protein	6.77 ± 0.83 nmol/mg of protein	6.65 ± 0.70 nmol/mg of protein	6.11 ± 0.29 nmol/mg of protein	6.57 ± 0.72 nmol/mg of protein	Nitrites, cerebellum [2, 5]: 5.46 ± 0.44 nmol/mg of protein; Nitrites, cerebral cortex [2, 5]: 4.72 ± 0.37 nmol/mg of protein; Nitrites, hippocampus [2, 5]: 5.44 ± 0.43 nmol/mg of protein; Nitrites, hypothalamus [2, 5]: 6.57 ± 0.88 nmol/mg of protein; Nitrites, midbrain [2, 5]: 5.50 ± 0.48 nmol/mg of protein; Nitrites, striatum [2, 5]: 3.57 ± 0.42 nmol/mg of protein; Activity of NOS, hippocampus [3, 4]: 3.09 ± 0.16 nmol/min/mg of protein; Activity of NOS, hypothalamus [3, 4]: 5.45 ± 0.24 nmol/min/mg of protein; Activity of NOS, midbrain [3, 4]: 2.60 ± 0.29 nmol/min/mg of protein; Activity of NOS, striatum [3, 4]: 1.26 ± 0.08 nmol/min/mg of protein; Activity of NOS, hippocampus [3, 5]: 2.70 ± 0.14 nmol/min/mg of protein; Activity of NOS, hypothalamus [3, 5]: 5.26 ± 0.28 nmol/min/mg of protein; Activity of NOS, midbrain [3, 5]: 1.83 ± 0.23 nmol/min/mg of protein; Activity of NOS, striatum [3, 5]: 1.24 ± 0.08 nmol/min/mg of protein
